Consider five compounds from patent EP4696688A1, “BENZO-FUSED RING COMPOUND INHIBITOR, AND PREPARATION METHOD THEREFOR AND USE THEREOF” (Shanghai Hansoh Biomedical Co., Ltd., priority 2023, dated 2024).

One series deals with T1, human CYP11B2 (Homo sapiens, UniProt P19099).
T1 construct: The main elements of an expression plasmid include ORF of human CYP11B1 or human CYP11B2; expressed in transfected cells
T1 sequence (P19099 25-503): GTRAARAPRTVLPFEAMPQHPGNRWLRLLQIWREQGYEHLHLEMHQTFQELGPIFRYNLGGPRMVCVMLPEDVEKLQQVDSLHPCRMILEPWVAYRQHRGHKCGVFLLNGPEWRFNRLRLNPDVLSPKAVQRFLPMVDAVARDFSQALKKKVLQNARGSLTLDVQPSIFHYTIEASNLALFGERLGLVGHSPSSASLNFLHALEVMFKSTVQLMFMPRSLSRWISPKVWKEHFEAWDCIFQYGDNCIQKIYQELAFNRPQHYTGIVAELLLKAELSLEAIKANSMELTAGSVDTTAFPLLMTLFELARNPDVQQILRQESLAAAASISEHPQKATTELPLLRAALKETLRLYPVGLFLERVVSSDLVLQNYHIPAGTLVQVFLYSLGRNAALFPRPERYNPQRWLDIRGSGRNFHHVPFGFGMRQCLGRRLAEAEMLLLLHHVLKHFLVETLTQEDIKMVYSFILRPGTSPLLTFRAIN
As to the kind of experiment: G-402 cell enzyme experiment, CYP11B2 (aldosterone product, HTRF). The class given is cell-based. The following applies: G-402 cells stably expressing human CYP11B2, 1 µM 11-deoxycorticosterone, 16 h. In short, it runs like this:
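Stably transfected G-402 cells in DMEM/F12 with 2.5% charcoal-treated FBS, incubated 16 h with 1 µM 11-deoxycorticosterone (CYP11B2, aldosterone product) or 1 µM 11-deoxycortisol (CYP11B1, cortisol product). Supernatant product measured by HTRF; EC50 from 4-parameter MMF sigmoidal fit, minimum defined by empty-plasmid cells.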

Another series addresses T2, human CYP11B1 (Homo sapiens, UniProt P15538).
T2 construct: The main elements of an expression plasmid include ORF of human CYP11B1 or human CYP11B2; expressed in transfected cells
T2 sequence (P15538 25-503): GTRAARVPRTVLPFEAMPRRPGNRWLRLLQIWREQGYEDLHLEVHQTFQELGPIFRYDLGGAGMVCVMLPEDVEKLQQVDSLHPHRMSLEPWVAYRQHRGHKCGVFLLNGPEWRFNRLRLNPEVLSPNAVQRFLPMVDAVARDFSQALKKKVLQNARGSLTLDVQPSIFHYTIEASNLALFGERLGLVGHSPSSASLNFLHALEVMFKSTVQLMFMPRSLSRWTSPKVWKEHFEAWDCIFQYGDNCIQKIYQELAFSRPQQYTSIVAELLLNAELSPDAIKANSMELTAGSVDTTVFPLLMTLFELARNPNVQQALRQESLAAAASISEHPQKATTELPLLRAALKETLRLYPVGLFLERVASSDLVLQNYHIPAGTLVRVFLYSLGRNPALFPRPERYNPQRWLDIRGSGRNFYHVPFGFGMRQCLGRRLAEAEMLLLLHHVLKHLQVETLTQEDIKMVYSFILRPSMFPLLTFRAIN
As to the kind of experiment: G-402 cell enzyme experiment, CYP11B1 (cortisol product, HTRF), selectivity versus CYP11B2. The series is classed as cell-based. The following applies: human selective factor: ratio of CYP11B1 EC50 to CYP11B2 EC50; G-402 cells.

The nature of series [1]: Pharmacokinetic determination in rats. The series is classed as in vivo. To be noted: rat, male SD rats, plasma, oral administration (PO) 5 mg/kg; for MRT inf: read-out: MRT0-∞. How it is done:
SD rats were used as test animals to study the pharmacokinetic behavior of the compounds of the present invention in rats (plasma) after oral administration.
3 SD rats per group, male.
Formulation of drug for oral administration: 0.5% CMC-Na (1% Tween 80)
5 g of sodium carboxymethyl cellulose (CMC-Na, viscosity: 800-1200 Cps) was weighed and dissolved in 1000 mL of purified water, and 10 g of Tween 80 was added. These materials were uniformly mixed to form a clear solution.
The example compounds were weighed and dissolved in the solution and the mixture was shaken well and ultrasonicated for 15 min to obtain a colorless clear solution with a concentration of 0.5 mg/mL. Formulation of drug for intravenous administration: 5% DMSO + 10% Solutol HS15 + 85% PBS
After overnight fasting, 3 male SD rats per group were administered orally (PO) at a dose of 5 mg/kg with an administration volume of 10 mL/kg. […]
0.2 mL of blood was collected from the jugular vein of the experimental animals before administration and at 0.25 h, 0.5 h, 1.0 h, 2.0 h, 4.0 h, 6.0 h, 8.0 h, and 24.0 h after administration and placed in an EDTA-2K test tube, and the test tube was centrifuged at 8000 rpm for 6 min at 4°C to separate the plasma, which was stored at -80°C; and the animals were fed 4 h after administration.
3 Experimental results: The final determination results were obtained by using LCMS/MS method.

A value given as a limit tells only on which side of the number the result lay.

Consider `[2H]C([2H])([2H])n1cc(C(=O)N2CC3(C2)CN(c2cncc(-c4ccc5nc(OC)ccc5c4)c2)C3)cn1` [Example 78, (6-(5-(2-methoxyquinolin-6-yl)pyridin-3-yl)-2,6-diazaspiro[3.3]heptan-2-yl)(1-(methyl-d3)-1H-pyrazol-4-yl)methanone], for which, at human CYP11B2, the half-maximal effective concentration (EC50) is 24 nM. The hsF on human CYP11B1 was more than 8488x. Further, in series [1], the AUC(0-inf) turned out to be 21600 ng·h/mL, the AUC(0-t) was 21600 ng·h/mL, the peak level (Cmax) was 3210 ng/mL and the Tmax worked out at 4 h. Further, in series [1], the half-life was 1.9 h and the MRT inf came to 4.7 h.
Turning to `COc1ccc2cc(-c3cncc(N4CC5(CN(C(=O)c6cnn(C)c6)C5)C4)n3)ccc2n1` [Example 79, (6-(6-(2-Methoxyquinolin-6-yl)pyrazin-2-yl)-2,6-diazaspiro[3.3]heptan-2-yl)(1-methyl-1H-pyrazol-4-yl)methanone], the response on human CYP11B2 was half-maximal at 12 nM (EC50). Besides, the hsF on human CYP11B1 turned out to be 3999x. In addition, in series [1], the AUC(0-inf) amounted to 16700 ng·h/mL, the AUC(0-t) was found to be 16700 ng·h/mL, the Cmax amounted to 3160 ng/mL and the time of peak concentration (Tmax) came out at 4 h. For the same compound, in series [1], the half-life was 2.8 h and the MRT inf turned out to be 4.5 h.
Regarding `Cn1cc(C(=O)N2CC(Oc3cncc(-c4ccc5c(c4)sc(=O)n5C)c3)C2)cn1` [Example 91, 3-methyl-6-(5-((1-(1-methyl-1H-pyrazole-4-carbonyl)azetidin-3-yl)oxy)pyridin-3-yl)benzo[d]thiazol-2(3H)-one], the EC50 on human CYP11B2 is 12 nM. For the same compound, the hsF at human CYP11B1 was determined as 2278x. Besides, in series [1], the AUC(0-inf) is 18200 ng·h/mL, the AUC(0-t) was found to be 18200 ng·h/mL, the Cmax is 2560 ng/mL and the time to peak (Tmax) came out at 1 h. Further, in series [1], the half-life was 2.2 h and the MRT inf was found to be 4.2 h.
Turning to `COc1ccc2cc(-c3cncc(N4CC5(CN(C(=O)c6ccc(C)nc6)C5)C4)n3)ccc2n1` [Example 100, (6-(6-(2-methoxyquinolin-6-yl)pyrazin-2-yl)-2,6-diazaspiro[3.3]heptan-2-yl)(6-methylpyridin-3-yl)methanone], at human CYP11B2, the EC50 worked out at 9 nM. In addition, the hsF on human CYP11B1 turned out to be 1048x. Further, in series [1], the AUC(0-inf) was determined as 22500 ng·h/mL, the AUC(0-t) came to 20100 ng·h/mL, the Cmax was 3950 ng/mL and the Tmax stood at 2 h. In series [1], the half-life was 2 h and the MRT inf was determined as 4.1 h.
`Cn1cc(C(=O)N2CCC3(CC2)CN(c2cncc(-c4ccc5c(c4)sc(=O)n5C)c2)C3)cn1` [Example 103, 3-methyl-6-(5-(7-(1-methyl-1H-pyrazole-4-carbonyl)-2,7-diazaspiro[3.5]nonan-2-yl)pyridin-3-yl)benzo[d]thiazol-2(3H)-one] returned a concentration giving a half-maximal response (EC50) at human CYP11B2 of 26 nM. The hsF at human CYP11B1 is reported as 1292x. In series [1], the total exposure AUC(0-inf) worked out at 24700 ng·h/mL, the area under the curve AUC(0-t) was found to be 24700 ng·h/mL, the Cmax is 2700 ng/mL and the Tmax worked out at 4 h. In addition, in series [1], the half-life was 1.8 h and the MRT inf is 5.6 h.
